Source: patent publication US6569881B1, “Substituted benzimidazole, the production thereof and the use thereof as means against parasitic protozoa” (Bayer Aktiengesellschaft, priority 1999, dated 2003)

Legend:
Format in all cases: in vivo, chicken chicks
Eimeria acervulina = experiment: Cage experiments coccidiosis/chicks, Eimeria acervulina part of the mixed infection; settings: for Efficacy against Eimeria acervulina (grade): first symbol of cell; on Efficacy against Eimeria acervulina (grade): key: 2 = complete action; 1 = weak action; 0 = inactive; D = death
Protocol: (§1) The efficacy of the compounds according to the invention can be confirmed, for example, in cage experiments using the following experimental arrangement, in which the animals are treated with the respective individual components and with the mixtures of the individual components.
(§2) An active compound-containing feed is prepared in such a way that the required amount of active compound is thoroughly mixed with a nutritionally balanced animal feed, e.g. with the chick feed indicated below.
(§3) 8 to 12 day-old male chicken chicks raised under coccidea-free conditions (e.g. LSL Brinkschulte/Senden) receive the compounds according to the invention (test substances) from 3 days before (day -3) the infection (=a.i.) until 8 (9) days after the infection (=p.i.) with the feed in the concentration indicated in ppm. Three animals are kept in each cage. Per dose, one to a number of groups of this type are employed. Infection is carried out by means of a stomach tube directly into the crop using approximately 100,000 sporulated oocysts of Eimeria acervulina and with in each case approximately 30,000 oocysts of E. maxima and 40,000 sporulated oocysts of E. tenella. These are highly virulent strains. The exact infectious dose is adjusted such that if possible one of three experimentally infected untreated chicks dies due to infection. For the assessment of the efficacy, the following criteria are taken into consideration: weight increase from the start of the experiment to the end of the experiment, death rate due to infection, macroscopic assessment of the faeces with respect to diarrhoea and excretion of blood on days 5 and 7 p.i. (grade 0 to 6), macroscopic grade of the intestinal mucous membrane, in particular of the cecums (grade 0 to 6) and the oocyst excretion and also the proportion (in %) of the oocysts sporulating within 24 hours. The number of oocysts in the faeces was determined with the aid of the McMaster counting chamber (see Engelbrecht and coworkers “Parasitologische Arbeitsmethoden in Medizin und Veterinärmedizin, [Parasitological working methods in medicine and veterinary medicine] Akademie-Verlag, Berlin (1965)). The individual findings are related to the untreated noninfected control groups and an overall grade is calculated (cf. A. Haberkorn (1986), pp. 263 to 270 in Research in Avian Coccidiosis ed L. R. McDougald, L. P. Joyner, P. L. Long Proceedings of the Georgia Coccidiosis Conference Nov, 18-20, 1985 Athens/Ga. USA).
(§4) In the columns “dropping scores”, “lesion score” and “oocyst control”, individual details of the action are given.

Eimeria tenella = experiment: Cage experiments coccidiosis/chicks, Eimeria tenella part of the mixed infection; settings: for Efficacy against Eimeria tenella (grade): third symbol of cell; on Efficacy against Eimeria tenella (grade): key: 2 = complete action; 1 = weak action; 0 = inactive; D = death
Protocol: as §1, §2, §3, §4

Eimeria maxima = experiment: Cage experiments coccidiosis/chicks, Eimeria maxima part of the mixed infection; settings: for Efficacy against Eimeria maxima (grade): second symbol of cell; on Efficacy against Eimeria maxima (grade): key: 2 = complete action; 1 = weak action; 0 = inactive; D = death
Protocol: as §1, §2, §3, §4

[1] = system: Eimeria acervulina, Eimeria maxima and Eimeria tenella; experiment: Cage experiments coccidiosis/chicks, mixed experimental infection; settings: for dropping scores / lesion score: grade 0 to 6
Protocol: as §1, §2, §3
In the column “ppm”, the concentration of the active compound employed in the feed is indicated in ppm.
In the column “mortality”, the percentage of the animals which have died is indicated under % and the number of the animals which have died/animals employed in the experiment is indicated under n.
In the column “weight % of not inf. control”, the ratio of the weight of the treated animals to the weight of the noninfected control group is indicated.
as §4
In the column “% efficacy”, the overall rating is assessed; 0% means no action, 100% means complete action.

[2] = 2.5 ppm in feed, listed as Ex. 13
[3] = 5 ppm in feed, listed as Ex. 13
[4] = 10 ppm in feed, listed as Ex. 13

## Cc1oc(=O)oc1Cn1c(C(F)(F)F)nc2cc(C(F)(F)F)c(C(F)(F)F)cc21 [Example 13]
Eimeria acervulina; 2.5 ppm in feed
  oocyst in % of inf. control ac.: 55%
Eimeria acervulina; [2]
  oocyst in % of inf. control ac.: 33%
Eimeria acervulina; 5 ppm in feed
  oocyst in % of inf. control ac.: 5%
Eimeria acervulina; [3]
  oocyst in % of inf. control ac.: 25%
Eimeria acervulina; 7.5 ppm in feed
  oocyst in % of inf. control ac.: 0%
Eimeria acervulina; 10 ppm in feed
  oocyst in % of inf. control ac.: 0%
Eimeria acervulina; Dose 5 ppm
  Efficacy against Eimeria acervulina (grade): 2
Eimeria acervulina; Dose 10 ppm
  Efficacy against Eimeria acervulina (grade): 2
Eimeria acervulina; Dose 25 ppm
  Efficacy against Eimeria acervulina (grade): D D D
Eimeria tenella; 2.5 ppm in feed
  oocyst in % of inf. control ten.: 27%
Eimeria tenella; [2]
  oocyst in % of inf. control ten.: >100%
Eimeria tenella; 5 ppm in feed
  oocyst in % of inf. control ten.: 3%
Eimeria tenella; [3]
  oocyst in % of inf. control ten.: 27%
Eimeria tenella; 7.5 ppm in feed
  oocyst in % of inf. control ten.: 0%
Eimeria tenella; 10 ppm in feed
  oocyst in % of inf. control ten.: 0%
Eimeria tenella; Dose 5 ppm
  Efficacy against Eimeria tenella (grade): 1
Eimeria tenella; Dose 10 ppm
  Efficacy against Eimeria tenella (grade): 2
Eimeria tenella; Dose 25 ppm
  Efficacy against Eimeria tenella (grade): D D D
Eimeria maxima; 2.5 ppm in feed
  oocyst in % of inf. control max.: 0%
Eimeria maxima; [2]
  oocyst in % of inf. control max.: 55%
Eimeria maxima; 5 ppm in feed
  oocyst in % of inf. control max.: 0%
Eimeria maxima; [3]
  oocyst in % of inf. control max.: 36%
Eimeria maxima; 7.5 ppm in feed
  oocyst in % of inf. control max.: 0%
Eimeria maxima; 10 ppm in feed
  oocyst in % of inf. control max.: 0%
Eimeria maxima; Dose 5 ppm
  Efficacy against Eimeria maxima (grade): 1
Eimeria maxima; Dose 10 ppm
  Efficacy against Eimeria maxima (grade): 2
Eimeria maxima; Dose 25 ppm
  Efficacy against Eimeria maxima (grade): D D D
[1]; 2.5 ppm in feed
  % efficacy tot.: 15%
  mortality %: 33%
  mortality n (died/employed): 1/3
  oocyst in % of inf. control tot.: 41%
  weight % of not inf. control: 61%
  dropping scores: 6
  lesion score: 6
[1]; [2]
  % efficacy tot.: 16%
  mortality %: 0%
  mortality n (died/employed): 0/3
  oocyst in % of inf. control tot.: 57%
[1]; 5 ppm in feed
  % efficacy tot.: 50%
  mortality %: 33%
  mortality n (died/employed): 1/3
  oocyst in % of inf. control tot.: 4%
  weight % of not inf. control: 74%
  dropping scores: 6
  lesion score: 6
[1]; [3]
  lesion score: 4.6
  % efficacy tot.: 32%
  mortality %: 0%
  mortality n (died/employed): 0/3
  oocyst in % of inf. control tot.: 26%
[1]; 7.5 ppm in feed
  % efficacy tot.: 74%
  mortality %: 0%
  mortality n (died/employed): 0/3
  oocyst in % of inf. control tot.: 0%
  weight % of not inf. control: 81%
  dropping scores: 6
  lesion score: 5.3
[1]; 10 ppm in feed
  % efficacy tot.: 73%
  mortality %: 0%
  mortality n (died/employed): 0/3
  oocyst in % of inf. control tot.: 0%
  weight % of not inf. control: 83%
  dropping scores: 6
  lesion score: 4.3
[1]; [4]
  lesion score: 5.3
  % efficacy tot.: 78%
  weight % of not inf. control: 76%

## Cc1oc(=O)oc1Cn1c(C(F)(F)F)nc2cc(C(F)(F)F)c(Cl)cc21 [Example 19]
Eimeria acervulina; 5 ppm in feed
  oocyst in % of inf. control ac.: >100%
Eimeria acervulina; 10 ppm in feed
  oocyst in % of inf. control ac.: 5%
Eimeria acervulina; 25 ppm in feed
  oocyst in % of inf. control ac.: >100%
Eimeria acervulina; Dose 5 ppm
  Efficacy against Eimeria acervulina (grade): 0
Eimeria acervulina; Dose 10 ppm
  Efficacy against Eimeria acervulina (grade): 2
Eimeria acervulina; Dose 25 ppm
  Efficacy against Eimeria acervulina (grade): 0
Eimeria tenella; 5 ppm in feed
  oocyst in % of inf. control ten.: >100%
Eimeria tenella; 10 ppm in feed
  oocyst in % of inf. control ten.: 5%
Eimeria tenella; 25 ppm in feed
  oocyst in % of inf. control ten.: >100%
Eimeria tenella; Dose 5 ppm
  Efficacy against Eimeria tenella (grade): 0
Eimeria tenella; Dose 10 ppm
  Efficacy against Eimeria tenella (grade): 1
Eimeria tenella; Dose 25 ppm
  Efficacy against Eimeria tenella (grade): 0
Eimeria maxima; 5 ppm in feed
  oocyst in % of inf. control max.: >100%
Eimeria maxima; 10 ppm in feed
  oocyst in % of inf. control max.: 13%
Eimeria maxima; 25 ppm in feed
  oocyst in % of inf. control max.: >100%
Eimeria maxima; Dose 5 ppm
  Efficacy against Eimeria maxima (grade): 0
Eimeria maxima; Dose 10 ppm
  Efficacy against Eimeria maxima (grade): 1
Eimeria maxima; Dose 25 ppm
  Efficacy against Eimeria maxima (grade): 0
[1]; 5 ppm in feed
  % efficacy tot.: 7%
  mortality %: 0%
  mortality n (died/employed): 0/3
  oocyst in % of inf. control tot.: >100%
  weight % of not inf. control: 52%
  dropping scores: 4
  lesion score: 6
[1]; 10 ppm in feed
  % efficacy tot.: 66%
  mortality %: 0%
  mortality n (died/employed): 0/3
  oocyst in % of inf. control tot.: 5%
  weight % of not inf. control: 75%
  dropping scores: 3
  lesion score: 4
[1]; 25 ppm in feed
  % efficacy tot.: 7%
  mortality %: 0%
  mortality n (died/employed): 0/3
  oocyst in % of inf. control tot.: >100%
  weight % of not inf. control: 56%
  dropping scores: 6
  lesion score: 6

## Cc1oc(=O)oc1Cn1c(C(F)(F)F)nc2c(C(F)(F)F)cc(C(F)(F)F)cc21 [Example 28]
Eimeria acervulina; 5 ppm in feed
  oocyst in % of inf. control ac.: 2%
Eimeria acervulina; 10 ppm in feed
  oocyst in % of inf. control ac.: 0%
Eimeria acervulina; Dose 5 ppm
  Efficacy against Eimeria acervulina (grade): 2
Eimeria acervulina; Dose 10 ppm
  Efficacy against Eimeria acervulina (grade): 2
Eimeria tenella; 5 ppm in feed
  oocyst in % of inf. control ten.: 0%
Eimeria tenella; 10 ppm in feed
  oocyst in % of inf. control ten.: 0%
Eimeria tenella; Dose 5 ppm
  Efficacy against Eimeria tenella (grade): 2
Eimeria tenella; Dose 10 ppm
  Efficacy against Eimeria tenella (grade): 2
Eimeria maxima; 5 ppm in feed
  oocyst in % of inf. control max.: 2%
Eimeria maxima; 10 ppm in feed
  oocyst in % of inf. control max.: 0%
Eimeria maxima; Dose 5 ppm
  Efficacy against Eimeria maxima (grade): 2
Eimeria maxima; Dose 10 ppm
  Efficacy against Eimeria maxima (grade): 2
[1]; 5 ppm in feed
  % efficacy tot.: 75%
  mortality %: 0%
  mortality n (died/employed): 0/3
  oocyst in % of inf. control tot.: 1%
  weight % of not inf. control: 85%
  dropping scores: 6
  lesion score: 1
[1]; 10 ppm in feed
  % efficacy tot.: 91%
  mortality %: 0%
  mortality n (died/employed): 0/3
  oocyst in % of inf. control tot.: 0%
  weight % of not inf. control: 82%
  dropping scores: 0
  lesion score: 0
[1]; 25 ppm in feed
  mortality %: 100%
  mortality n (died/employed): 3/3
  dropping scores: 0
